For the data set, the system named is CCRIS mutagenicity, Ames/micronucleus/aberration tests. Briefly: CCRIS mutagenicity studies.
The mark [1] stands for this setting: Test System: AMES SALMONELLA TYPHIMURIUM, Strain/Indicator: TA98, Metabolic Activation: NONE, Method: STANDARD PLATE.
The mark [2] stands for this setting: Test System: AMES SALMONELLA TYPHIMURIUM, Strain/Indicator: TA98, Metabolic Activation: S-9, Method: STANDARD PLATE.
The mark [3] stands for this setting: Test System: AMES SALMONELLA TYPHIMURIUM, Strain/Indicator: TA100, Metabolic Activation: NONE, Method: STANDARD PLATE.
The mark [4] stands for this setting: Test System: AMES SALMONELLA TYPHIMURIUM, Strain/Indicator: TA100, Metabolic Activation: S-9, Method: STANDARD PLATE.
Where [5] appears, read: Test System: AMES SALMONELLA TYPHIMURIUM, Strain/Indicator: TA98, Metabolic Activation: NONE, Method: PREINCUBATION
Where [6] appears, read: Test System: AMES SALMONELLA TYPHIMURIUM, Strain/Indicator: TA98, Metabolic Activation: RAT, LIVER, S-9, AROCLOR 1254, Method: PREINCUBATION
[7] abbreviates: Test System: AMES SALMONELLA TYPHIMURIUM, Strain/Indicator: TA100, Metabolic Activation: NONE, Method: PREINCUBATION
[8] abbreviates: Test System: AMES SALMONELLA TYPHIMURIUM, Strain/Indicator: TA100, Metabolic Activation: RAT, LIVER, S-9, AROCLOR 1254, Method: PREINCUBATION
[9] abbreviates: Test System: AMES SALMONELLA TYPHIMURIUM, Strain/Indicator: TA102, Metabolic Activation: NONE, Method: PREINCUBATION
The mark [10] stands for this setting: Test System: AMES SALMONELLA TYPHIMURIUM, Strain/Indicator: TA102, Metabolic Activation: RAT, LIVER, S-9, AROCLOR 1254, Method: PREINCUBATION

This note sets out measurements from PubChem BioAssay AID1259407 (Chemical Carcinogenesis Research Information System (CCRIS), 2018).

Structures are written as SMILES. Calls of active or inactive are those of the source. No rule for the calls is given here.

As for `O=c1[nH]c(=O)n([C@H]2C[C@H](O)[C@@H](CO)O2)cc1Br`, the mutagenic call is, setting by setting: under setting [1], “inactive; negative”; under setting [2], “inactive; negative”; under setting [3], “inactive; negative”; under setting [4], “inactive; negative”; (Test System: AMES SALMONELLA TYPHIMURIUM, Strain/Indicator: TA1537, Metabolic Activation: S-9, Method: STANDARD PLATE) “inactive; negative”; (Test System: CHINESE HAMSTER V-79, Strain/Indicator: V-79/6-THIOGUANINE, Metabolic Activation: NONE, Method: STANDARD PLATE) “active; positive”. Besides, the mutagenic call (Test System: CHINESE HAMSTER V-79, Strain/Indicator: V-79/8-AZAGUANINE, Metabolic Activation: NONE, Method: STANDARD PLATE) is “active; positive”; the mutagenic call (Test System: E. COLI, Strain/Indicator: WP2 (HCR), Metabolic Activation: NONE, Method: STANDARD PLATE) was “inactive; negative”; the mutagenic call (Test System: E. COLI, Strain/Indicator: WP2 (HCR), Metabolic Activation: S-9, Method: STANDARD PLATE) was “inactive; negative”.
For the compound `Nc1ccc(N=Nc2ccc(N=Nc3c(S(=O)(=O)O)cc4c(c3N)C(=O)/C(=N\Nc3ccc(N=Nc5ccc(N)cc5N)cc3)C(S(=O)(=O)O)=C4)cc2)c(N)c1`, the mutagenic call (Test System: AMES SALMONELLA TYPHIMURIUM, Strain/Indicator: TA1538, Metabolic Activation: NONE, Method: STANDARD PLATE) is “inactive; negative” and the mutagenic call (Test System: AMES SALMONELLA TYPHIMURIUM, Strain/Indicator: TA1538, Metabolic Activation: RAT, LIVER, S-9, AROCLOR 1254, Method: STANDARD PLATE) was “active; positive”.
In the case of `OCC1CCCO1` (stereo unspecified), the mutagenic call runs as follows: under setting [5], “inactive; negative”; under setting [6], “inactive; negative”; under setting [7], “inactive; negative”; under setting [8], “inactive; negative”; under setting [9], “inactive; negative”; under setting [10], “inactive; negative”.
With `CC(C)=CC(=O)C=C(C)C`, where the note is “Test System: MOUSE LYMPHOMA, Strain/Indicator: L5178Y (TK+/TK-), Metabolic Activation: NONE, Method: SUSPENSION/PLATE”, the mutagenic call is “inactive; negative”.
As to `Oc1ccc2cccnc2c1`, the mutagenic call reads like this: under setting [3], “inactive; negative”; (Test System: AMES SALMONELLA TYPHIMURIUM, Strain/Indicator: TA100, Metabolic Activation: RAT, LIVER, S-9, AROCLOR 1254 (10% OR 20%), Method: STANDARD PLATE) “inactive; negative”.
For `C[C@H]1CC[C@@H]2[C@@H](C)[C@H]3C(C[C@H]4[C@@H]5CC=C6C[C@@H](O[C@@H]7O[C@H](CO)[C@H](O)[C@H](O[C@@H]8O[C@H](CO)[C@@H](O)[C@H](O)[C@H]8O)[C@H]7O[C@@H]7O[C@@H](C)[C@H](O)[C@@H](O)[C@H]7O)CC[C@]6(C)C5CC[C@]34C)N2C1` (stereo partly specified), the mutagenic call is, setting by setting: under setting [1], “inactive; negative”; under setting [2], “inactive; negative”; under setting [3], “inactive; negative”; under setting [4], “inactive; negative”.
On to `Nc1nc(=O)n([C@H]2C[C@H](O)[C@@H](CO)O2)cc1CCCl`, for which the mutagenic call runs as follows: (Test System: AMES SALMONELLA TYPHIMURIUM, Strain/Indicator: TA97, Metabolic Activation: NONE, Method: PREINCUBATION) “inactive; negative”; (Test System: AMES SALMONELLA TYPHIMURIUM, Strain/Indicator: TA97, Metabolic Activation: RAT, LIVER, S-9, AROCLOR 1254, Method: PREINCUBATION) “inactive; negative”; under setting [5], “inactive; negative”; under setting [6], “inactive; negative”; under setting [7], “inactive; negative”; under setting [8], “inactive; negative”. Further, the mutagenic call under setting [9] was “inactive; negative”; the mutagenic call under setting [10] is “inactive; negative”; the mutagenic call (Test System: AMES SALMONELLA TYPHIMURIUM, Strain/Indicator: TA104, Metabolic Activation: NONE, Method: PREINCUBATION) is “inactive; negative”; the mutagenic call (Test System: AMES SALMONELLA TYPHIMURIUM, Strain/Indicator: TA104, Metabolic Activation: RAT, LIVER, S-9, AROCLOR 1254, Method: PREINCUBATION) was “inactive; negative”; the mutagenic call (Test System: AMES SALMONELLA TYPHIMURIUM, Strain/Indicator: TA1535, Metabolic Activation: NONE, Method: PREINCUBATION) was “inactive; negative”; the mutagenic call (Test System: AMES SALMONELLA TYPHIMURIUM, Strain/Indicator: TA1535, Metabolic Activation: RAT, LIVER, S-9, AROCLOR 1254, Method: PREINCUBATION) was “inactive; negative”. The mutagenic call was “inactive; negative” (Test System: AMES SALMONELLA TYPHIMURIUM, Strain/Indicator: TA1537, Metabolic Activation: NONE, Method: PREINCUBATION); “inactive; negative” (Test System: AMES SALMONELLA TYPHIMURIUM, Strain/Indicator: TA1537, Metabolic Activation: RAT, LIVER, S-9, AROCLOR 1254, Method: PREINCUBATION); “inactive; negative” (Test System: AMES SALMONELLA TYPHIMURIUM, Strain/Indicator: TA1538, Metabolic Activation: NONE, Method: PREINCUBATION); “inactive; negative” (Test System: AMES SALMONELLA TYPHIMURIUM, Strain/Indicator: TA1538, Metabolic Activation: RAT, LIVER, S-9, AROCLOR 1254, Method: PREINCUBATION); “inactive; negative” (Test System: CHINESE HAMSTER V-79, Strain/Indicator: V-79/8-AZAGUANINE, Metabolic Activation: NONE).
